# Literature values, collected in patent US20100172990A1, “BIOCOMPATIBLE MICROGELS AND APPLICATIONS THEREOF” (UNIVERSIDAD DEL PAIS VASCO, priority 2007, published 2010).
# Settings: at 55° C.
structure (smiles),measurement,value
"C=CN1CCCCCC1=O [VCL, N-vinylcaprolactam]",solubility in water,approximately 88 g/L
